PubChem BioAssay (NCI)
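GI50 is the concentration that inhibits growth by half. TGI denotes the concentration required for complete inhibition of growth.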

Legend:
Assay in all cases: inhibition of tumour cell growth, NCI panel, 384-well format
RXF 393 renal = test system: RXF 393 renal
UACC-62 melanoma = test system: UACC-62 melanoma
SN12C renal = test system: SN12C renal
HL-60(TB) leukemia = test system: HL-60(TB) leukemia
A498 renal = test system: A498 renal
NCI/ADR-RES ovarian = test system: NCI/ADR-RES ovarian
HCT-116 colon = test system: HCT-116 colon
LOX IMVI melanoma = test system: LOX IMVI melanoma
UACC-257 melanoma = test system: UACC-257 melanoma
HCC-2998 colon = test system: HCC-2998 colon
SK-MEL-2 melanoma = test system: SK-MEL-2 melanoma
SF-295 CNS = test system: SF-295 CNS
SR leukemia = test system: SR leukemia
KM12 colon = test system: KM12 colon
MCF7 breast = test system: MCF7 breast
HCT-15 colon = test system: HCT-15 colon
T-47D breast = test system: T-47D breast
PC-3 prostate = test system: PC-3 prostate
NCI-H522 lung = test system: NCI-H522 lung
NCI-H322M lung = test system: NCI-H322M lung
DU-145 prostate = test system: DU-145 prostate
MDA-MB-468 breast = test system: MDA-MB-468 breast
HT29 colon = test system: HT29 colon
SK-OV-3 ovarian = test system: SK-OV-3 ovarian
OVCAR-5 ovarian = test system: OVCAR-5 ovarian
SK-MEL-28 melanoma = test system: SK-MEL-28 melanoma
MOLT-4 leukemia = test system: MOLT-4 leukemia
NCI-H226 lung = test system: NCI-H226 lung
TK-10 renal = test system: TK-10 renal
M14 melanoma = test system: M14 melanoma
ACHN renal = test system: ACHN renal
OVCAR-3 ovarian = test system: OVCAR-3 ovarian
HOP-92 NSCLC = test system: HOP-92 NSCLC
RPMI-8226 leukemia = test system: RPMI-8226 leukemia
OVCAR-8 ovarian = test system: OVCAR-8 ovarian
SW-620 colon = test system: SW-620 colon
NCI-H460 NSCLC = test system: NCI-H460 NSCLC
A549 NSCLC = test system: A549 NSCLC
K-562 leukemia = test system: K-562 leukemia
CCRF-CEM leukemia = test system: CCRF-CEM leukemia
NCI-H23 lung = test system: NCI-H23 lung
MDA-MB-231 breast = test system: MDA-MB-231 breast
SK-MEL-5 melanoma = test system: SK-MEL-5 melanoma
786-0 renal = test system: 786-0 renal
COLO 205 colon = test system: COLO 205 colon
IGROV1 ovarian = test system: IGROV1 ovarian
MDA-MB-435 melanoma = test system: MDA-MB-435 melanoma
BT-549 breast = test system: BT-549 breast
MALME-3M melanoma = test system: MALME-3M melanoma
HOP-62 NSCLC = test system: HOP-62 NSCLC
OVCAR-4 ovarian = test system: OVCAR-4 ovarian
SF-539 CNS = test system: SF-539 CNS
SF-268 CNS = test system: SF-268 CNS
CAKI-1 renal = test system: CAKI-1 renal
UO-31 renal = test system: UO-31 renal
SNB-19 CNS = test system: SNB-19 CNS
U251 glioblastoma = test system: U251 glioblastoma

COc1cc(F)cc([C@@H](CO)NC(=O)[C@@H](C)N2Cc3ccc(-c4nc(NC5CCOCC5)ncc4Cl)cc3C2=O)c1
GI50 (RXF 393 renal): 0.441 µM
TGI (RXF 393 renal): 16.9 µM
GI50 (UACC-62 melanoma): < 0.01 µM
TGI (UACC-62 melanoma): 0.0427 µM
GI50 (SN12C renal): 16.6 µM
TGI (SN12C renal): 85.4 µM
GI50 (HL-60(TB) leukemia): < 0.01 µM
TGI (HL-60(TB) leukemia): 0.0429 µM
GI50 (A498 renal): 10.4 µM
TGI (A498 renal): 36.1 µM
GI50 (NCI/ADR-RES ovarian): 14.7 µM
TGI (NCI/ADR-RES ovarian): 31.9 µM
GI50 (HCT-116 colon): 0.0137 µM
TGI (HCT-116 colon): 0.201 µM
GI50 (LOX IMVI melanoma): 0.0134 µM
TGI (LOX IMVI melanoma): 0.0671 µM
GI50 (UACC-257 melanoma): < 0.01 µM
TGI (UACC-257 melanoma): 0.0209 µM
GI50 (HCC-2998 colon): < 0.01 µM
TGI (HCC-2998 colon): 0.0408 µM
GI50 (SK-MEL-2 melanoma): < 0.01 µM
TGI (SK-MEL-2 melanoma): 0.0312 µM
GI50 (SF-295 CNS): 15.2 µM
TGI (SF-295 CNS): 43 µM
GI50 (SR leukemia): 0.499 µM
TGI (SR leukemia): 14.7 µM
GI50 (KM12 colon): 0.0465 µM
TGI (KM12 colon): 16.4 µM
GI50 (MCF7 breast): 16.5 µM
TGI (MCF7 breast): 31.9 µM
GI50 (HCT-15 colon): 14.4 µM
TGI (HCT-15 colon): 75.6 µM
GI50 (T-47D breast): 11.7 µM
TGI (T-47D breast): 24.1 µM
GI50 (PC-3 prostate): 18.3 µM
TGI (PC-3 prostate): 36.2 µM
GI50 (NCI-H522 lung): 11.3 µM
TGI (NCI-H522 lung): 27.4 µM
GI50 (NCI-H322M lung): 0.0722 µM
TGI (NCI-H322M lung): 25.8 µM
GI50 (DU-145 prostate): 11.3 µM
TGI (DU-145 prostate): 38.7 µM
GI50 (MDA-MB-468 breast): 0.325 µM
TGI (MDA-MB-468 breast): 10 µM
GI50 (HT29 colon): < 0.01 µM
TGI (HT29 colon): 13.4 µM
GI50 (SK-OV-3 ovarian): 6.75 µM
TGI (SK-OV-3 ovarian): 63.2 µM
GI50 (OVCAR-5 ovarian): 0.0102 µM
TGI (OVCAR-5 ovarian): > 100 µM
GI50 (SK-MEL-28 melanoma): < 0.01 µM
TGI (SK-MEL-28 melanoma): < 0.01 µM
GI50 (MOLT-4 leukemia): 7.8 µM
TGI (MOLT-4 leukemia): 20.2 µM
GI50 (NCI-H226 lung): 0.214 µM
TGI (NCI-H226 lung): 16.1 µM
GI50 (TK-10 renal): 0.821 µM
TGI (TK-10 renal): 40.3 µM
GI50 (M14 melanoma): < 0.01 µM
TGI (M14 melanoma): 0.0138 µM
GI50 (ACHN renal): 5.8 µM
TGI (ACHN renal): 60.8 µM
GI50 (OVCAR-3 ovarian): 13.9 µM
TGI (OVCAR-3 ovarian): 33.3 µM
GI50 (HOP-92 NSCLC): 0.0249 µM
TGI (HOP-92 NSCLC): 0.162 µM
GI50 (RPMI-8226 leukemia): 0.224 µM
TGI (RPMI-8226 leukemia): 5.09 µM
GI50 (OVCAR-8 ovarian): 12.4 µM
TGI (OVCAR-8 ovarian): 28.2 µM
GI50 (SW-620 colon): 0.0132 µM
TGI (SW-620 colon): 19.3 µM
GI50 (NCI-H460 NSCLC): 1.12 µM
TGI (NCI-H460 NSCLC): 31.3 µM
GI50 (A549 NSCLC): 0.0457 µM
TGI (A549 NSCLC): 17.3 µM
GI50 (K-562 leukemia): 0.409 µM
TGI (K-562 leukemia): 19 µM
GI50 (CCRF-CEM leukemia): 11.7 µM
TGI (CCRF-CEM leukemia): 24.7 µM
GI50 (NCI-H23 lung): < 0.01 µM
TGI (NCI-H23 lung): 0.0221 µM
GI50 (MDA-MB-231 breast): 0.0854 µM
TGI (MDA-MB-231 breast): 19.1 µM
GI50 (SK-MEL-5 melanoma): 0.0181 µM
TGI (SK-MEL-5 melanoma): 12.1 µM
GI50 ([…]-0 renal): 11.3 µM
TGI (786-0 renal): 34.1 µM
GI50 (COLO 205 colon): < 0.01 µM
TGI (COLO 205 colon): 0.0246 µM
GI50 (IGROV1 ovarian): 0.145 µM
TGI (IGROV1 ovarian): 12.6 µM
GI50 (MDA-MB-435 melanoma): 0.0103 µM
TGI (MDA-MB-435 melanoma): 20.1 µM
GI50 (BT-549 breast): 11.4 µM
TGI (BT-549 breast): 23.8 µM
GI50 (MALME-3M melanoma): < 0.01 µM
TGI (MALME-3M melanoma): < 0.01 µM
GI50 (HOP-62 NSCLC): 0.218 µM
TGI (HOP-62 NSCLC): 25.9 µM
GI50 (OVCAR-4 ovarian): 13.2 µM
TGI (OVCAR-4 ovarian): 39.3 µM
GI50 (SF-539 CNS): 0.382 µM
TGI (SF-539 CNS): 15.6 µM
GI50 (SF-268 CNS): 25.5 µM
TGI (SF-268 CNS): 79.5 µM
GI50 (CAKI-1 renal): 0.096 µM
TGI (CAKI-1 renal): 33.3 µM
GI50 (UO-31 renal): 0.578 µM
TGI (UO-31 renal): 20.1 µM
GI50 (SNB-19 CNS): 11 µM
TGI (SNB-19 CNS): > 100 µM
GI50 (U251 glioblastoma): 0.46 µM
TGI (U251 glioblastoma): 42.7 µM
